This experiment has as its target T1, human GPR120 (Homo sapiens, UniProt Q5NUL3).
T1 construct: expressed in transfected cells; host or cells: HEK293T, transient transfection with PEI
T1 sequence (Q5NUL3 1-361): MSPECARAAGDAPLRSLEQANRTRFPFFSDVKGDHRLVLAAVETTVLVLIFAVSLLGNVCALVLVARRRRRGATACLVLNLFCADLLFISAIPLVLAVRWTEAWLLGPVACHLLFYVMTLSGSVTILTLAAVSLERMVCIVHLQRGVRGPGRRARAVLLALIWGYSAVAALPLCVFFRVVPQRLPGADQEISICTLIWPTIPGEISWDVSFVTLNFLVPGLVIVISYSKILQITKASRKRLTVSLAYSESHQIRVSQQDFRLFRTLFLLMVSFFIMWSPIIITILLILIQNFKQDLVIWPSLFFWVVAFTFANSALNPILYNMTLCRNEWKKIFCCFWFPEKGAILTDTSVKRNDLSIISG
The experiment in a line: Human GPR120-β Arrestin 2 BRET agonist assay. The note with it: HEK293T cells transiently co-expressing hGPR120-eYFP and β-arrestin 2-RLuc; BRET normalised to DMSO (0%) and TUG-891 (100%); read-out: hGPR120 pEC50 (converted). In kind it is cell-based. The procedure: pEC50 data was obtained by the following procedure:
Human GPR120-β Arrestin 2 Bio-Luminescence Resonance Energy Transfer (BRET) Agonist Assay Procedure
HEK293T cells were cultured in growth media composed of DMEM L-glutamine media supplemented with 10% (v:v) fetal bovine serum (FBS) and 1% (v:v) 10,000 units penicillin/10 mgml^−1 streptomycin at 37° C., 5% CO2. HEK293T cells transiently co-expressing human GPR120 […] and b-arrestin 2 were generated by transfection with plasmids encoding a construct of hGPR120 […] fused at its C terminal with enhanced yellow fluorescent protein (eYFP), and another encoding β-arrestin 2 fused to Renilla luciferase (RLuc), using Polyethylenimine (PEI) as the transfection reagent.
Transfected cells were cryopreserved in batches for consistency between replicate assays. Twenty-four hours post transfection, cells were harvested with non-enzymatic cell dissociation buffer and re-suspended in DMEM medium supplemented with 10% DMSO and 10% FBS before being transferred first to −80° C. overnight and then to liquid nitrogen for long-term storage. On the day prior to the assay, cells were thawed at 37° C. and re-suspended in growth media. A 96 well white opaque bottom microtitre plate was then seeded with 40,000 cells in a volume of 100 μl growth media per well and seeded plates were then incubated overnight at 37° C., 5% CO2. On the day of the BRET experiment, cells were washed twice with BRET assay buffer (Hanks balanced salt solution (HBSS) supplemented with 10 mM HEPES (pH 7.4)), then 80 μl per well of BRET assay buffer was added before the plate was incubated for 30 minutes at 37° C., 5% CO2. Then, Renilla luciferase substrate coelenterazine h (5 μM) was added to the cells and incubated at 37° C. for 10 minutes before the addition of GPR120 agonist (TUG-891) or test compound for a further 5 minutes at 37° C.
Bio-luminescence at λ 535 nm and λ 475 nm was then measured with a Pherastar FsX instrument, and the λ 535/λ 475 ratio of bio-luminescence was then used to calculate a BRET value. hGPR120 agonist potency values (pEC50) were calculated by normalising the BRET values to the DMSO vehicle (0% control) and TUG-891 (100% control) and then fitting the normalised data to a 3-parameter concentration-response curve.
`O=C(O)CCc1ccc2c(c1)CCN(c1cc(Oc3ccccc3)ccc1F)C2` [Compound 9, 3-(2-(2-fluoro-5-phenoxyphenyl)-1,2,3,4-tetrahydroisoquinolin-6-yl)propanoic acid]: the EC50 was 20 nM.
As to `O=C(O)CCc1ccc2c(c1)CCN(c1cc(OC3CCC3)cc(F)c1F)C2` [Compound 3, 3-(2-(5-cyclobutoxy-2,3-difluorophenyl)-1,2,3,4-tetrahydroisoquinolin-6-yl)propanoic acid], the EC50 was 10 nM.
Then `O=C(O)CCc1ccc2c(c1)CCN(c1nc(OC3CCC3)c(F)cc1F)C2` [Compound 44, 3-(2-(6-Cyclobutoxy-3,5-difluoropyridin-2-yl)-1,2,3,4-tetrahydroisoquinolin-6-yl)propanoic Acid], with 25.1 nM.
Then `O=C(O)C1CC1c1ccc2c(c1)CCN(c1nc(OC3CCC3)ccc1F)C2` (stereo not drawn) [Compound 37, 2-(2-(6-cyclobutoxy-3-fluoropyridin-2-yl)-1,2,3,4-tetrahydroisoquinolin-6-yl)cyclopropane-1-carboxylic acid], with 39.8 nM.
Take `CC(C)Oc1ccc(F)c(N2CCc3ccc(CCC(=O)O)cc3CC2)c1` [Compound 48, 3-(3-(2-fluoro-5-isopropoxyphenyl)-2,3,4,5-tetrahydro-1H-benzo[d]azepin-7-yl)propanoic acid]: the EC50 was 200 nM.
Then `O=C(O)CCc1ccc2c(c1)CCN(c1cc(Cl)cc(OC3CCC3)c1)C2` [Compound 43, 3-(2-(3-chloro-5-cyclobutoxyphenyl)-1,2,3,4-tetrahydroisoquinolin-6-yl)propanoic acid], with 20 nM.
Then `CC(Cc1ccc2c(c1)CCN(c1cc(OC(F)(F)F)ccc1F)C2)C(=O)O` (stereo not drawn) [Compound 26, 3-(2-(2-Fluoro-5-(trifluoromethoxy)phenyl)-1,2,3,4-tetrahydroisoquinolin-6-yl)-2-methylpropanoic Acid], with 79.4 nM; and `O=C(O)CCc1ccc2c(c1)CCN(c1cccnc1OC1CCC1)C2` [Compound 5, 3-(2-(2-cyclobutoxypyridin-3-yl)-1,2,3,4-tetrahydroisoquinolin-6-yl)propanoic acid], with 7940 nM; and `O=C(O)CCc1cc2c(cc1F)CN(c1cc(F)cc(OC3CCC3)c1)CC2` [Compound 42, 3-(2-(3-Cyclobutoxy-5-fluorophenyl)-7-fluoro-1,2,3,4-tetrahydroisoquinolin-6-yl)propanoic Acid], with 316 nM.
Then `O=C(O)CCc1cc(F)c2c(c1)CCN(c1cccc(Oc3ccccc3)c1)C2` [Compound 41, 3-(8-fluoro-2-(3-phenoxyphenyl)-1,2,3,4-tetrahydroisoquinolin-6-yl)propanoic acid], with 31.6 nM; and `O=C(O)C1CC1c1ccc2c(c1)CCN(c1cc(OC3CCC3)ccc1F)C2` (racemic) [Compound 34, 2-(2-(5-cyclobutoxy-2-fluorophenyl)-1,2,3,4-tetrahydroisoquinolin-6-yl)cyclopropanecarboxylic Acid], with 158 nM; and `O=C(O)CCc1ccc2c(c1)CCN(c1cc(OC(F)(F)F)ccc1F)CC2` [Compound 45, 3-(3-(2-fluoro-5-(trifluoromethoxy)phenyl)-2,3,4,5-tetrahydro-1H-benzo[d]azepin-7-yl)propanoic Acid], with 25.1 nM.
For the compound `O=C(O)CCc1ccc2c(c1)CCN(c1cccc(Oc3ccccc3)c1)C2` [Compound 20, 3-(2-(3-phenoxyphenyl)-1,2,3,4-tetrahydroisoquinolin-6-yl)propanoic acid], the EC50 was 25.1 nM.
For `N#Cc1ccc(N2CCc3cc(CCC(=O)O)ccc3C2)cc1` [Compound 17, 3-(2-(4-cyanophenyl)-1,2,3,4-tetrahydroisoquinolin-6-yl)propanoic acid] the value was 7940 nM; for `O=C(O)CCc1ccc2c(c1)CCN(c1cc(F)cc(-c3ccccc3)c1)C2` [Compound 24, 3-(2-(5-fluoro-[1,1′-biphenyl]-3-yl)-1,2,3,4-tetrahydroisoquinolin-6-yl)propanoic acid], 398 nM.
Then `Cc1ccc(OC2CCC2)cc1N1CCc2cc(CCC(=O)O)ccc2C1` [Compound 14, 3-(2-(5-cyclobutoxy-2-methylphenyl)-1,2,3,4-tetrahydroisoquinolin-6-yl)propanoic acid], with 50.1 nM; and `O=C(O)CCc1cc(F)c2c(c1)CCN(c1cc(OC(F)(F)F)ccc1F)C2` [Compound 40, 3-(8-fluoro-2-(2-fluoro-5-(trfluoromethoxy)phenyl)-1,2,3,4-tetrahydroisoquinolin-6-yl)propanoic acid], with 31.6 nM.
Then `O=C(O)C1CC1c1ccc2c(c1)CCN(c1cccc(Oc3ccccc3)c1)C2` (single isomer, unassigned) [38 isomer 1], with 50.1 nM; and `CC(C)Oc1cc(F)cc(N2CCc3ccc(CCC(=O)O)cc3CC2)c1` [Compound 49, 3-(3-(3-fluoro-5-isopropoxyphenyl)-2,3,4,5-tetrahydro-1H-benzo[d]azepin-7-yl)propanoic acid], with 398 nM.
With `O=C(O)CCc1ccc2c(c1)CCN(c1cc(Oc3ccccc3)ccc1F)CC2` [Compound 50, 3-(3-(2-fluoro-5-phenoxyphenyl)-2,3,4,5-tetrahydro-1H-benzo[d]azepin-7-yl)propanoic acid], the EC50 is 25.1 nM.
Then `O=C(O)CCc1ccc2c(c1)CCN(c1ccccc1Oc1ccccc1)C2` [Compound 4, 3-(2-(2-phenoxyphenyl)-1,2,3,4-tetrahydroisoquinolin-6-yl)propanoic acid], with 158 nM; and `O=C(O)CCc1ccc2c(c1)CCN(c1cc(OC3CCC3)ccc1Cl)C2` [Compound 11, 3-(2-(2-chloro-5-cyclobutoxyphenyl)-1,2,3,4-tetrahydroisoquinolin-6-yl)propanoic acid], with 50.1 nM; and `O=C(O)C1CC1c1ccc2c(c1)CCN(c1cc(OC3CCC3)ccc1F)C2` (single isomer, unassigned) [34 isomer 1], with 158 nM.
Then `O=C(O)CCc1ccc2c(c1)CCN(c1cccc(OC(F)(F)F)c1)C2` [Compound 10, 3-(2-(3-(Trifluoromethoxy)phenyl)-1,2,3,4-tetrahydroisoquinolin-6-yl)propanoic Acid], with 158 nM.
For `O=C(O)C1CC1c1ccc2c(c1)CCN(c1cc(OC3CCC3)ccc1F)CC2` (stereo not drawn) [Compound 53] the value was 100 nM; for `O=C(O)CCc1ccc2c(c1)CCCN(c1cc(OC(F)(F)F)ccc1F)C2` [Compound 54, 3-(2-(2-Fluoro-5-(trifluoromethoxy)phenyl)-2,3,4,5-tetrahydro-1H-benzo[c]azepin-7-yl)propanoic Acid], 200 nM.
For the compound `O=C(O)CCc1ccc2c(c1)CCN(c1cccc(-c3ccccc3)c1)C2` [Compound 23, 3-(2-([1,1′-biphenyl]-3-yl)-1,2,3,4-tetrahydroisoquinolin-6-yl)propanoic acid], the EC50 was 398 nM.
For `O=C(O)CCc1ccc2c(c1)CN(c1cc(OC(F)(F)F)ccc1F)CC2` [Compound 33] the value was 1260 nM.
Then `COc1cc(OC(F)(F)F)cc(N2CCc3cc(CCC(=O)O)ccc3C2)c1` [Compound 25, 3-(2-(3-methoxy-5-(trifluoromethoxy)phenyl)-1,2,3,4-tetrahydroisoquinolin-6-yl)propanoic acid], with 63.1 nM.
Then `O=C(O)C1CC1c1ccc2c(c1)CCN(c1cccc(Oc3ccccc3)c1)C2` (single isomer, unassigned) [38 isomer 2], with 39.8 nM.

The record behind these values is patent US11220483B2, “Tetrahydro-benzo[d]azepine derivatives as GPR120 modulators” (CALDAN THERAPEUTICS LIMITED, priority 2018, dated 2022).
